According to article PMC4657098, “A Review of the Updated Pharmacophore for the Alpha 5 GABA(A) Benzodiazepine Receptor Model” (International Journal of Medicinal Chemistry, 2015):
Where two headings read alike, the source gives them in different places.

Experiments:
[1] = system: Bz BS of GABA(A) receptors; details: cited from earlier work
α1β3γ2 GABAA/BzR [2] = target: T1, α1β3γ2 GABAA/BzR (Homo sapiens, UniProt P14867+P18507); experiment: Competition binding to HEK cell membranes, α1β3γ2; design: expressed in transfected cells
α2β3γ2 GABAA/BzR [3] = target: T2, α2β3γ2 GABAA/BzR (Homo sapiens, UniProt P18507+P47869); experiment: Competition binding to HEK cell membranes, α2β3γ2; design: expressed in transfected cells
α3β3γ2 GABAA/BzR [4] = target: T3, α3β3γ2 GABAA/BzR (Homo sapiens, UniProt P18507+P34903); experiment: Competition binding to HEK cell membranes, α3β3γ2; design: expressed in transfected cells
α5β3γ2 GABAA/BzR [5] = target: T4, α5β3γ2 GABAA/BzR (Homo sapiens, UniProt P18507+P31644); experiment: Competition binding to HEK cell membranes, α5β3γ2; design: expressed in transfected cells
α6β3γ2 GABAA/BzR [6] = target: T5, α6β3γ2 GABAA/BzR (Homo sapiens, UniProt P18507+Q16445); experiment: Competition binding to HEK cell membranes, α6β3γ2; design: expressed in transfected cells
α4β3γ2 GABAA/BzR [7] = target: T6, α4β3γ2 GABAA/BzR (Homo sapiens, UniProt P18507+P48169); details: cited from earlier work
T6 construct: expressed in transfected cells; host or cells: LTK cells (given for XLi-093 only)

α1β3γ2 GABAA/BzR [8] = target: T1, α1β3γ2 GABAA/BzR; design: expressed in transfected cells; host or cells: LTK cells (given for XLi-093 only); details: cited from earlier work
α2β3γ2 GABAA/BzR [9] = target: T2, α2β3γ2 GABAA/BzR; design: expressed in transfected cells; host or cells: LTK cells (given for XLi-093 only); details: cited from earlier work
α3β3γ2 GABAA/BzR [10] = target: T3, α3β3γ2 GABAA/BzR; design: expressed in transfected cells; host or cells: LTK cells (given for XLi-093 only); details: cited from earlier work
α5β3γ2 GABAA/BzR [11] = target: T4, α5β3γ2 GABAA/BzR; design: expressed in transfected cells; host or cells: LTK cells (given for XLi-093 only); details: read-out: Affinity Ki α5; cited from earlier work
α6β3γ2 GABAA/BzR [12] = target: T5, α6β3γ2 GABAA/BzR; design: expressed in transfected cells; host or cells: LTK cells (given for XLi-093 only); details: cited from earlier work
[13] = system: alcohol preferring and HAD rats; details: cited from earlier work
α4β3γ2 GABAA/BzR [14] = target: T6, α4β3γ2 GABAA/BzR; experiment: biochemical; type: binding; details: Figure 17; read-out: Binding data Ki α4

For `CCCOc1ccc2[nH]c3cnc(C(=O)OCC)c(COC)c3c2c1` [6-PBC, 6-(propyloxy)-4-(methoxymethyl)-β-carboline-3-carboxylic acid ethyl ester], the modulation ([1]; Supplement Table 1) is given as “partial agonist”, the Ki (α1β3γ2 GABAA/BzR [2]; Ki α1) is given as 0.49 nM and the Ki (α2β3γ2 GABAA/BzR [3]; Ki α2) is given as 1.21 nM. For the same compound, the Ki (α3β3γ2 GABAA/BzR [4]; Ki α3) was 2.2 nM, the Ki (α5β3γ2 GABAA/BzR [5]; Ki α5) was 2.39 nM and the Ki (α6β3γ2 GABAA/BzR [6]; Ki α6) was 1340 nM.

For `CC(C)(C)OC(=O)c1cc2c(cn1)[nH]c1ccc(I)cc12` [29(iodo-βCCt)], the Ki (α4β3γ2 GABAA/BzR [7]; read-out: Affinity Ki α4) is listed as greater than 4000 nM, the Ki (α1β3γ2 GABAA/BzR [8]; read-out: Affinity Ki α1) is listed as 14.4 nM and the Ki (α2β3γ2 GABAA/BzR [9]; read-out: Affinity Ki α2) is listed as 44.9 nM. For the same compound, the Ki (α3β3γ2 GABAA/BzR [10]; read-out: Affinity Ki α3) was 123 nM, the Ki (α5β3γ2 GABAA/BzR [11]) was 65.3 nM and the Ki (α6β3γ2 GABAA/BzR [12]; read-out: Affinity Ki α6) was greater than 4000 nM.

For `CCOC(=O)c1cc2c(cn1)[nH]c1ccc(I)cc12` [31(iodo-βCCE)], the Ki (α4β3γ2 GABAA/BzR [7]; read-out: Affinity Ki α4) is given as 1000 nM, the Ki (α1β3γ2 GABAA/BzR [8]; read-out: Affinity Ki α1) is given as 4.8 nM and the Ki (α2β3γ2 GABAA/BzR [9]; read-out: Affinity Ki α2) is given as 31 nM. The Ki (α3β3γ2 GABAA/BzR [10]; read-out: Affinity Ki α3) was 34 nM, the Ki (α5β3γ2 GABAA/BzR [11]) was 286 nM and the Ki (α6β3γ2 GABAA/BzR [12]; read-out: Affinity Ki α6) was 1000 nM.

For `O=C(OC(C(F)(F)F)C(F)(F)F)c1cc2c(cn1)[nH]c1ccc(I)cc12` [32(WY-B-08)], the Ki (α4β3γ2 GABAA/BzR [7]; read-out: Affinity Ki α4) is listed as 3000 nM, the Ki (α1β3γ2 GABAA/BzR [8]; read-out: Affinity Ki α1) is listed as 78 nM and the Ki (α2β3γ2 GABAA/BzR [9]; read-out: Affinity Ki α2) is listed as 301 nM. For the same compound, the Ki (α3β3γ2 GABAA/BzR [10]; read-out: Affinity Ki α3) was 131 nM, the Ki (α5β3γ2 GABAA/BzR [11]) was 681 nM and the Ki (α6β3γ2 GABAA/BzR [12]; read-out: Affinity Ki α6) was 3000 nM.

In the case of `O=C(OCC(F)(F)F)c1cc2c(cn1)[nH]c1ccc(-c3ccco3)cc12` [34(WYB27-1)], the Ki (α4β3γ2 GABAA/BzR [7]; read-out: Affinity Ki α4) is listed as 3000 nM, the Ki (α1β3γ2 GABAA/BzR [8]; read-out: Affinity Ki α1) is listed as 26 nM and the Ki (α2β3γ2 GABAA/BzR [9]; read-out: Affinity Ki α2) is listed as 143 nM. For the same compound, the Ki (α3β3γ2 GABAA/BzR [10]; read-out: Affinity Ki α3) was 117 nM, the Ki (α5β3γ2 GABAA/BzR [11]) was 127 nM and the Ki (α6β3γ2 GABAA/BzR [12]; read-out: Affinity Ki α6) was 2000 nM.

In the case of `O=C(OCC(F)(F)F)c1cc2c(cn1)[nH]c1ccc(-c3ccccc3)cc12` [38(WYB29-2)], the Ki (α4β3γ2 GABAA/BzR [7]; read-out: Affinity Ki α4) is listed as 2000 nM, the Ki (α2β3γ2 GABAA/BzR [9]; read-out: Affinity Ki α2) is listed as 137 nM and the Ki (α3β3γ2 GABAA/BzR [10]; read-out: Affinity Ki α3) is listed as 125 nM. For the same compound, the Ki (α5β3γ2 GABAA/BzR [11]) was 299 nM and the Ki (α6β3γ2 GABAA/BzR [12]; read-out: Affinity Ki α6) was 2000 nM.

For `CC(C)(C)OC(=O)c1cc2c(cn1)[nH]c1ccc(C#Cc3ccc4[nH]c5cnc(C(=O)OC(C)(C)C)cc5c4c3)cc12` [42(WY-S-2)], the Ki (α4β3γ2 GABAA/BzR [7]; read-out: Affinity Ki α4) is given as greater than 300 nM, the Ki (α1β3γ2 GABAA/BzR [2]; binding to α1 subtypes) is given as 30 nM and the Ki (α1β3γ2 GABAA/BzR [8]; read-out: Affinity Ki α1) is given as 30 nM. The Ki (α2β3γ2 GABAA/BzR [9]; read-out: Affinity Ki α2) was 124 nM, the Ki (α3β3γ2 GABAA/BzR [10]; read-out: Affinity Ki α3) was 100 nM and the Ki (α5β3γ2 GABAA/BzR [11]) was greater than 300 nM. For the same compound, the Ki (α6β3γ2 GABAA/BzR [12]; read-out: Affinity Ki α6) was greater than 4000 nM.

In the case of `CC(C)(C)OC(=O)c1cc2c(cn1)[nH]c1ccc(C#CC#Cc3ccc4[nH]c5cnc(C(=O)OC(C)(C)C)cc5c4c3)cc12` [43(WY-S-6)], the Ki (α4β3γ2 GABAA/BzR [7]; read-out: Affinity Ki α4) is listed as 5000 nM, the Ki (α1β3γ2 GABAA/BzR [2]; binding to α1 subtypes) is listed as 120 nM and the Ki (α1β3γ2 GABAA/BzR [8]; read-out: Affinity Ki α1) is listed as 120 nM. The Ki (α2β3γ2 GABAA/BzR [9]; read-out: Affinity Ki α2) was 1060 nM, the Ki (α3β3γ2 GABAA/BzR [10]; read-out: Affinity Ki α3) was 3940 nM and the Ki (α5β3γ2 GABAA/BzR [11]) was 5000 nM. The Ki (α6β3γ2 GABAA/BzR [12]; read-out: Affinity Ki α6) was 5000 nM.

In the case of `CCOC(=O)c1cc2c(cn1)[nH]c1ccccc12` [BCCE, reference compound], the modulation [1] is given as “inverse agonist” and the Ki (α1β3γ2 GABAA/BzR [2]; read-out: Ki α1) is given as 1.2 nM.

For `CC(C)(C)OC(=O)c1cc2c(cn1)[nH]c1ccccc12` [BCCt], the Ki (α4β3γ2 GABAA/BzR [7]; Figure 33, αxβ3γ2, read-out: Affinity Ki α4) is given as 1000 nM, the “rate at which rats self-administrated alcohol” value ([13]; alcohol preferring and HAD rats) is given as “reduce the rate” and the sucrose self-administration [13] is given as “little or no effect”. For the same compound, the modulation ([1]; Supplement Table 1) was “antagonist”, the “pharmacological properties compared with classical benzodiazepine receptor antagonists” value [1] was “near GABA neutral antagonists” and the Ki (α1β3γ2 GABAA/BzR [2]; Ki α1) was 0.03 nM. For the same compound, the Ki (α2β3γ2 GABAA/BzR [3]; Ki α2) was 0.0419 nM, the Ki (α3β3γ2 GABAA/BzR [4]; Ki α3) was 0.035 nM and the Ki (α5β3γ2 GABAA/BzR [5]; Ki α5) was 69.3 nM. The Ki (α5β3γ2 GABAA/BzR [5]; read-out: Ki α5) was 111 nM, the Ki (α6β3γ2 GABAA/BzR [6]; Ki α6) was 5000 nM and the Ki (α6β3γ2 GABAA/BzR [12]; Figure 33, αxβ3γ2, read-out: Affinity Ki α6) was greater than 5000 nM.

In the case of `CCOC(=O)c1ncn2c1CN=C(c1ccccc1)c1cc(-c3ccccc3)ccc1-2` [DM-I-81 (9)], the Ki (α4β3γ2 GABAA/BzR [14]) is listed as greater than 2000 nM, the Ki (α4β3γ2 GABAA/BzR [7]; Figure 4, read-out: Ki α4) is listed as greater than 2000 nM and the Ki (α1β3γ2 GABAA/BzR [2]; Figure 17, read-out: Binding data Ki α1) is listed as greater than 2000 nM. It also gave a Ki (α2β3γ2 GABAA/BzR [3]; Figure 17, read-out: Binding data Ki α2) greater than 2000 nM, a Ki (α3β3γ2 GABAA/BzR [4]; Figure 17, read-out: Binding data Ki α3) greater than 2000 nM and a Ki (α5β3γ2 GABAA/BzR [5]; Figure 17, read-out: Binding data Ki α5) of 176 nM. The Ki (α6β3γ2 GABAA/BzR [6]; Figure 17, read-out: Binding data Ki α6) was greater than 2000 nM, the Ki (α1β3γ2 GABAA/BzR [8]; Figure 4, read-out: Ki α1) was greater than 2000 nM and the Ki (α2β3γ2 GABAA/BzR [9]; Figure 4, read-out: Ki α2) was greater than 2000 nM. The Ki (α3β3γ2 GABAA/BzR [10]; Figure 4, read-out: Ki α3) was greater than 2000 nM and the Ki (α6β3γ2 GABAA/BzR [12]; Figure 4, read-out: Ki α6) was greater than 2000 nM.

In the case of `CCc1c(C(=O)OC)ncc2[nH]c3cc(OC)c(OC)cc3c12` [DMCM, reference compound], the modulation [1] is given as “inverse agonist”, the Ki (α1β3γ2 GABAA/BzR [2]; read-out: Ki α1) is given as 5.69 nM and the Ki (α2β3γ2 GABAA/BzR [3]; read-out: Ki α2) is given as 8.29 nM. The Ki (α3β3γ2 GABAA/BzR [4]; read-out: Ki α3) was 4 nM, the Ki (α5β3γ2 GABAA/BzR [5]; read-out: Ki α5) was 1.04 nM and the Ki (α6β3γ2 GABAA/BzR [6]; read-out: Ki α6) was 134 nM.
